# Data from article PMC11720353, “Clove Essential Oil as a Source of Antitumoral Compounds Capable of Crossing the Blood–Brain Barrier: A Focus on the Effects of β-Caryophyllene and Eugenol in a Glioblastoma Cell Line” (International Journal of Molecular Sciences, 2024).
# Columns and labels:
# Type in all cases: cell-based, human
# U87 cells [1] = assay: Cell death assay (Annexin V/PI, flow cytometry); settings: EU 200 µM, BCA 125 µM, alone or in combination, 24 h
# Procedure: HMC3 and U87 cells were seeded in duplicate into 12-well plates (10 × 10^4 cells/well). After 24 h of incubation at 37 °C and 5% CO2, the medium was replaced, and the cells were treated either with EU (200 µM) or BCA (125 µM), alone and in combination (EU 200 µM + BCA 125 µM). Following the 24 h treatment, the cells were co-stained with AV-APC and PI according to the manufacturer’s protocol (Biolegend, San Diego, CA, USA). Briefly, the cells were resuspended in binding buffer (100 µL) and incubated with AV-APC solution (5 µL) and PI solution (2 µL) for 15 min at room temperature. Then, the cells were diluted in a binding buffer (400 µL). A six-parameter, four-color FACSCalibur flow cytometer (Becton Dickinson, San Jose, CA, USA) was used, and at least 10,000 events were collected by acquisition using CellQuest software (Becton Dickinson, San Jose, CA, USA). The results were analyzed with the Paint-a-Gate software and expressed in percentage (%).
# HMC3 cells [2] = assay: Cell cycle analysis (PI/RNase, flow cytometry); settings: EU 200 µM, BCA 125 µM, alone or in combination, 24 h
# Procedure: (§1) Analysis of the effect of BCA and/or EU on the cell cycle was assessed with flow cytometry using propidium iodide (PI)/RNase solution, according to the manufacturer’s protocol (Immunostep, Salamanca, Spain), as previously described. HMC3 and U87 cells (30 × 10^4 cells/well) were seeded in triplicate into 6-well plates and incubated for 24 h at 37 °C and 5% CO2. Thereafter, the cells were treated either with EU (200 µM) or BCA (125 µM) alone or in combination (EU 200 µM + BCA 125 µM). After 24 h, the cells were detached and fixed in 70% ethanol for 60 min at 4 °C, washed twice with PBS, and then stained with 500 µL of PI/RNase solution. The results were acquired using CellQuest software and expressed as the calculated percentage of the cell population in each cell cycle phase (G0/G1, S and G2/M) according to the PI intensity.
# U87 cells [3] = assay: Cell cycle analysis (PI/RNase, flow cytometry); settings: BCA 125 µM alone or with EU 200 µM, 24 h
# Procedure: as §1
# HMC3 cells [4] = assay: Inflammatory cytokines in conditioned media (Luminex/BioPlex); settings: EU 200 µM, BCA 125 µM, alone or in combination, 24 h
# Procedure: (§2) In order to determine the impact of BCA and/or EU on inflammatory cytokines levels, cytokine expression analyses (L-6, IL-4, IL-8 and TNF-α) were performed using a customized detection panel purchased from Bio-techne (Minneapolis, MN, USA). The cells were seeded, in triplicate, into 24-well culture plates (8 × 10^4 cells/well). After 24 h, the medium was replaced and the cells were treated either with the vehicle (ethanol) or with different concentrations of EO single compounds alone (EU: 2 µM, 20 µM, 200 µM; and BCA: 1.25 µM, 12.5 µM, 125 µM) or in combination (EU 2 µM + BCA 1.25 µM; EU 20 µM + BCA 12.5 µM; and EU 200 µM + BCA 125 µM). The final concentration of ethanol in the cell medium was kept lower than 0.1%. The ethanol 0.1%-treated cells were considered the control condition. After the 24 h treatment, supernatants were collected and centrifuged at 4,000× g for 10 min, and the samples were analyzed with the BioPlex 200 instrument (BioRad®, Hercules, CA, USA) following the manufacturer’s protocol.
# U87 cells [5] = assay: as above; settings: EU 200 µM, BCA 125 µM, alone or in combination, 24 h
# Procedure: as §2
smiles,measurement,setting,value
"C=C1CC/C=C(\C)CC[C@@H]2[C@@H]1CC2(C)C [BCA, β-Caryophyllene]","live (viable) cells, change with respect to control",U87 cells [1],did not affect
same,effect on cell cycle,HMC3 cells [2],no effects
same,decrease in percentage of cells in the S phase,U87 cells [3],−49.4%
same,increase in percentage of cells in the G0/G1 phase,U87 cells [3],21.1%
same,"IL-4 levels, change vs control",HMC3 cells [4],−52.2%
same,"IL-6 secretion, change vs control",HMC3 cells [4],−55.5%
same,"IL-8 secretion, change vs control",HMC3 cells [4],−38.0%
same,"TNF-α secretion, change vs control",HMC3 cells [4],−49.7%
same,"IL-4 levels, change vs control",U87 cells [5],−29.3%
same,"IL-6 secretion, change vs control",U87 cells [5],None of the treatments modulated
same,"IL-8 secretion, change vs control",U87 cells [5],unaffected
